US20030086820A1 (priority 2001, published 2003)
Where two headings read alike, the source gives them in different places.

How the values were obtained:
[1] = system: ileal fluid dependent organism (IFDO)
[2] = system: IFDO organisms
[3] = target: BSA protein (Bos taurus, UniProt P02769)
[4] = target: prion protein (PRP^SC) (Homo sapiens, UniProt P04156)

BSA protein, sequence (P02769 25-607 limits assumed): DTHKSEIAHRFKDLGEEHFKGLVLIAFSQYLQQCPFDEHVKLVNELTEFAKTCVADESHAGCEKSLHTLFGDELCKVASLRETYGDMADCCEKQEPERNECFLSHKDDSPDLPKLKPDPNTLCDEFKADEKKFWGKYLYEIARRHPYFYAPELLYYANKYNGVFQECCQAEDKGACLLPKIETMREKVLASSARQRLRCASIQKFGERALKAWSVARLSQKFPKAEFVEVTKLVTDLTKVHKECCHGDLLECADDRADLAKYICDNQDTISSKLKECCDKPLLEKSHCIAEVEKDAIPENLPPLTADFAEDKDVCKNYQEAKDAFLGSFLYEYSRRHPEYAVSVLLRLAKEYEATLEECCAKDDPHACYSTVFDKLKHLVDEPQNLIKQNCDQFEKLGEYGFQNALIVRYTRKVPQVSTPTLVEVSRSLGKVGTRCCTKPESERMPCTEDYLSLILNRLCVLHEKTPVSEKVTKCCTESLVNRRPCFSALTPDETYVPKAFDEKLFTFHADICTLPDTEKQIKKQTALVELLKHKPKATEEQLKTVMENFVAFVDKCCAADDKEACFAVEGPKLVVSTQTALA

## OO [Vapor Hydrogen Peroxide, hydrogen peroxide]
[1]
  log reduction in IFDO: six
  number of colonies developed on the vacuum treated samples: less than 1 log
[1]; FIG. 9, atmospheric 1.5 mg/l 30° C. or 3 mg/l 40° C., 15 minutes
  deactivating the prion model (IFDO): vacuum pulses versus atmospheric conditions: more effective
[2]
  log reduction in IFDO: six
  number of colonies developed from IFDO remaining on the vacuum treated samples: less than 1 log
[3]
  breakdown of protein (gel electrophoresis): effectively destroys proteins
[4]; 25° C., 1.7 mg/L, 3 hours exposure, atmospheric pressure
  PRP^SC Detected: No
[4]; 30° C., 2.2 mg/L, vacuum conditions, six pulses of vapor
  PRP^SC Detected: No
[4]; 50° C., 7.0 mg/L, vacuum conditions, three pulses of vapor
  PRP^SC Detected: No
[4]; summary of Table 7, no precleaning step
  destruction of the harmful form of the prion protein: effective at destruction of the harmful form of the prion protein
